The values that follow come from patent US20230197192A1, “SELECTING NEOANTIGENS FOR PERSONALIZED CANCER VACCINE” (AMAZON TECHNOLOGIES, INC., priority 2020, published 2023).

A short description of the series: Visible dissolution of peptides in DMSO / 0.9% NaCl for pool formulation. It is filed as physicochemical. The conditions noted are these: for Solubility: appearance of the solution; for Visual solubility (appearance of the peptide solution): Peptide Synthesis Engineering Run Batch for Sample GGGGG, visual appearance of the peptide solution (Clear / Semi Cloudy / Cloudy). As for the experimental part: Groups of peptides are selected and pooled. Up to four (4) pools with not more than (NMT) five (5) peptides in each pool were prepared. Each peptide was dissolved in 5.538% (v/v) DMSO followed by 0.9% NaCl solution, at a concentration of each peptide at 0.4158 mg/mL. Peptides which were visibly dissolved were accepted for that group's pool. Upon successful pooling of all peptides within a group, the pool was filtered through a 0.2 μm Nylon filter. Peptides were shipped in sterile tubes and labeled with Pool name, lot #, components, manufacturing data, quantity/concentration and storage conditions.

Setting [1] is: Peptide synthesis engineering run batch for sample DDDDD_2020.
[2] abbreviates: Peptide synthesis engineering run batch for sample FFFFF.

Where a SMILES comes first, the peptide text is derived from it. Where no end group is shown, it is not given here.

On to `CC(C)C[C@H](NC(=O)[C@@H](NC(=O)[C@H](Cc1c[nH]c2ccccc12)NC(=O)[C@H](C)NC(=O)[C@H](C)NC(=O)[C@@H](NC(=O)[C@H](Cc1ccccc1)NC(=O)[C@H](CCCCN)NC(=O)[C@H](C)N)C(C)C)[C@@H](C)O)C(=O)N[C@@H](CCCCN)C(=O)N[C@@H](C)C(=O)N[C@@H](C)C(=O)N[C@@H](C)C(=O)O` [DDDDD.46], for which, under setting [1], the Solubility result is “Clear”. For the molecule `CC(C)C[C@H](NC(=O)[C@H](CS)NC(=O)[C@H](CS)NC(=O)[C@H](CCC(=O)O)NC(=O)[C@H](Cc1c[nH]c2ccccc12)NC(=O)[C@H](Cc1ccccc1)NC(=O)[C@H](CCC(N)=O)NC(=O)[C@H](C)NC(=O)[C@@H](N)CC(C)C)C(=O)O` [FFFFF.38] (H-LAQFWECCL-OH; N-terminus and C-terminus assumed), the Solubility entry under setting [2] was “Cloudy”. The same measure, in the same setting: in the case of `CC(C)C[C@H](NC(=O)[C@H](CS)NC(=O)[C@H](CS)NC(=O)[C@H](CCC(=O)O)NC(=O)[C@H](Cc1c[nH]c2ccccc12)NC(=O)[C@H](Cc1ccccc1)NC(=O)[C@H](CCC(N)=O)NC(=O)[C@H](C)N)C(=O)O` [FFFFF.41] (H-AQFWECCL-OH; N-terminus and C-terminus assumed) it was “Cloudy”; in that of `CC(C)C[C@H](NC(=O)[C@@H](NC(=O)[C@H](Cc1c[nH]c2ccccc12)NC(=O)[C@H](C)NC(=O)[C@H](C)NC(=O)[C@@H](NC(=O)[C@H](Cc1ccccc1)NC(=O)[C@H](CCCCN)NC(=O)[C@H](C)N)C(C)C)[C@@H](C)O)C(=O)N[C@@H](CCCCN)C(=O)N[C@@H](C)C(=O)N[C@@H](C)C(=O)N[C@@H](C)C(=O)O` [FFFFF.51], “Clear”. On to `CC[C@H](C)[C@H](NC(=O)[C@H](C)NC(=O)CNC(=O)[C@H](CC(C)C)NC(=O)[C@H](CC(C)C)NC(=O)[C@H](CC(=O)O)NC(=O)[C@H](CS)NC(=O)[C@H](CO)NC(=O)[C@H](CCC(=O)O)NC(=O)[C@H](C)NC(=O)[C@@H]1CCCN1C(=O)[C@@H](N)CO)C(=O)N[C@@H](CCC(N)=O)C(=O)N[C@H](C(=O)N[C@@H](CS)C(=O)N[C@H](C(=O)N[C@@H](CCCNC(=N)N)C(=O)N[C@@H](CCCCN)C(=O)N[C@@H](CO)C(=O)N[C@@H](CC(C)C)C(=O)NCC(=O)O)[C@@H](C)CC)[C@@H](C)O` [GGGGG.11] (H-SPAESCDLLGAIQTCIRKSLG-OH; N-terminus and C-terminus assumed), for which the “Visual solubility (appearance of the peptide solution)” value (from here on “Visual solubility”) was “Clear”. `CSCC[C@H](NC(=O)[C@H](CC(C)C)NC(=O)[C@@H](NC(=O)[C@H](CCSC)NC(=O)[C@H](CC(C)C)NC(=O)[C@@H]1CCCN1C(=O)[C@H](C)NC(=O)[C@H](Cc1ccc(O)cc1)NC(=O)[C@@H]1CCCN1C(=O)[C@H](CC(=O)O)NC(=O)CNC(=O)[C@@H](NC(=O)CNC(=O)CNC(=O)[C@H](CC(C)C)NC(=O)CNC(=O)[C@H](CO)NC(=O)[C@H](Cc1ccc(O)cc1)NC(=O)[C@@H]1CCCN1)C(C)C)C(C)C)C(=O)N[C@@H](CS)C(=O)N[C@@H](CCCNC(=N)N)C(=O)N[C@H](C(=O)N[C@@H](CS)C(=O)N[C@@H](CC(C)C)C(=O)N[C@@H](CCC(=O)O)C(=O)N[C@@H](CC(=O)O)C(=O)O)C(C)C` [GGGGG.17] (H-PYSGLGGVGDPYAPLMVLMCRVCLED-OH; N-terminus and C-terminus assumed): the Stability entry is on record as “Semi”.

Take `CC[C@H](C)[C@H](NC(=O)[C@H](CO)NC(=O)[C@H](CC(=O)O)NC(=O)[C@H](CCC(=O)O)NC(=O)[C@H](C)NC(=O)CN)C(=O)N[C@@H](CC(=O)O)C(=O)N[C@@H](CO)C(=O)N1CCC[C@H]1C(=O)N[C@@H](CO)C(=O)N[C@@H](C)C(=O)N[C@@H](CS)C(=O)N1CCC[C@H]1C(=O)N[C@@H](CC(C)C)C(=O)N[C@@H](CO)C(=O)N[C@H](C(=O)NCC(=O)N[C@@H](CS)C(=O)N1CCC[C@H]1C(=O)N[C@@H](C)C(=O)N[C@@H](CC(C)C)C(=O)O)[C@@H](C)O` [GGGGG.21] (H-GAEDSIDSPSACPLSTGCPAL-OH; N-terminus and C-terminus assumed): the “Visual solubility” value is given as “Clear”. In the case of `CC(C)C[C@H](NC(=O)[C@@H](NC(=O)[C@H](Cc1c[nH]c2ccccc12)NC(=O)[C@H](C)NC(=O)[C@H](C)NC(=O)[C@@H](NC(=O)[C@H](Cc1ccccc1)NC(=O)[C@H](CCCCN)NC(=O)[C@H](C)N)C(C)C)[C@@H](C)O)C(=O)N[C@@H](CCCCN)C(=O)N[C@@H](C)C(=O)N[C@@H](C)C(=O)N[C@@H](C)C(=O)O` [GGGGG.51], the “Visual solubility” value was “Clear”. On to AAIQEKKEI [GGGGG.39], for which the “Visual solubility” value is recorded as “Clear”. Turning to APGSSRLA [GGGGG.43], the “Visual solubility” value was “Clear”.

With APPTRLAPPQRPPPPS [DDDDD.22], under setting [1], the Solubility entry is recorded as “Clear”. Regarding AQSRSSPTL [DDDDD.36], the Solubility entry under setting [1] was “Clear”.

As to ARPEAQSRSSPTLES [DDDDD.12], the Solubility entry under setting [1] was “Clear”. Turning to ARPPGGSGPLRVLIPDLQL [GGGGG.3], the “Visual solubility” value is recorded as “Clear”. As for ASSQAGTVTL [DDDDD.38], under setting [1], the Solubility entry is listed as “Clear”. For the molecule AVVSYVVADMKEMLPRS [DDDDD.25], under setting [1], the Solubility entry is “Clear”. Consider DPRLVIFSGCATRLFEA [DDDDD.11], for which the Solubility result under setting [1] is on record as “Cloudy”. For the molecule DSSIPSAATL [DDDDD.42], the Solubility entry under setting [1] is “Clear”. Regarding EAQSRSSPTL [DDDDD.40], under setting [1], the Solubility entry is reported as “Clear”.

Turning to EDTGQDMLALFLRTNRQAAK [FFFFF.8], the Solubility result under setting [2] is recorded as “Clear”. Take FEAPGFNTTTA [DDDDD.45]: under setting [1], the Solubility entry was “Clear”. For FETTTGFDPHSGTPLSDHEAL [GGGGG.7], the “Visual solubility” value was “Clear”. For FGALHEDANKVIKPTSSNTA [DDDDD.5], the Solubility result under setting [1] is given as “Clear”. For the molecule FLSPGQLLQEPRTSLLIINNT [FFFFF.20], the Solubility entry under setting [2] is reported as “Cloudy”. Consider FQSLCQAPPLLKDKVLTALE [GGGGG.8], for which the “Visual solubility” value was “Clear”. Take GALPVASPASL [GGGGG.45]: the “Visual solubility” value is “Clear”.

Regarding GQLFPYRARIEIKNKF [DDDDD.27], under setting [1], the Solubility result is “Clear”. Turning to GQRRDRLLTVQALSGL [DDDDD.14], the Solubility entry under setting [1] is on record as “Clear”. In the case of HKDAVTCVNFSSSGHLLASGSR [FFFFF.29], the Solubility result under setting [2] is listed as “Clear”. Consider “HLINYQDDAELATHALPELTKLLNDEDPV [GGGGG.14]”, for which the “Visual solubility” value is “Clear”. Consider IQSIYGGLPKVPAKPKEPTIPH [GGGGG.23], for which the “Visual solubility” value is reported as “Clear”. On to KDKIWLRRTKPSKHQYQICLAIDDSSSM [DDDDD.17], for which the Solubility entry under setting [1] was “Clear”. As to KLESTVGSPKKPLSDLGKLS [FFFFF.22], the Solubility entry under setting [2] was “Clear”.

Take KNPQMGDPGSLQPKSAETMNNIDRLRME [DDDDD.6]: the Solubility entry under setting [1] is listed as “Clear”. Consider KVTNCFSV [DDDDD.33], for which, under setting [1], the Solubility entry was “Clear”. As to LAPGQPFL [GGGGG.50], the “Visual solubility” value is “Clear”. Same read-out and setting: then LDRQHVQHQLLVILKELRK [GGGGG.34], with “Clear”. With LGIGGLQDL [FFFFF.49], the Solubility entry under setting [2] was “Clear”. For the molecule LIKPPAHTSAILTVLR [GGGGG.30], the “Visual solubility” value is “Clear”. LLGTVDKHSVKVTNCFSVPHN [DDDDD.16]: the Solubility entry under setting [1] was “Clear”. As to LLLQEEEL [FFFFF.42], the Solubility entry under setting [2] was “Clear”. In the case of LNGSEPTGAYSIKGFFADYEIPN [DDDDD.26], the Solubility entry under setting [1] is reported as “Clear”.

Regarding LQMLCPQEAPQILSRLEAVR [DDDDD.7], the Solubility entry under setting [1] is on record as “Clear”. For LSPYPEHL [FFFFF.50], under setting [2], the Solubility result is listed as “Clear”. For MILASPRYVDQVTEFLQQKLK [FFFFF.18], the Solubility entry under setting [2] is given as “Clear”. For the molecule MSKPKWPLEDEISKPEVP [DDDDD.3], the Solubility entry under setting [1] is “Clear”. For MSYELKCAQEL [GGGGG.49], the “Visual solubility” value was “Clear”. On the same count and under the same terms, then MSYELKCAQELSQKQDG [GGGGG.31], with “Clear”. For the molecule NQPKIGGPLGTGAFEAPGFNTTTATLGF [DDDDD.4], the Solubility result under setting [1] was “Clear”. As for NSASMKQAL [FFFFF.47], under setting [2], the Solubility entry is reported as “Clear”.

NSLQNQALQTLQERLHEADAT [GGGGG.20]: the “Visual solubility” value is given as “Clear”.

Turning to NSLTSSVL [FFFFF.45], the Solubility entry under setting [2] is “Clear”. With NTSALPLVSL [DDDDD.41], the Solubility entry under setting [1] was “Clear”. Consider PLNPPASTAFSQEPHSGSPA [FFFFF.24], for which the Solubility entry under setting [2] was “Clear”. Consider PSAPQQEGVASKEKEEV [GGGGG.4], for which the “Visual solubility” value is “Clear”. For the molecule PTLPQPASHFSPPPPPPPLPP [FFFFF.5], the Solubility entry under setting [2] is recorded as “Clear”. On to QAYNALTL [GGGGG.41], for which the “Visual solubility” value was “Clear”.

For QELSPEKLKSWGGSLLGPWLSSGLKPLK [DDDDD.18], the Solubility entry under setting [1] is listed as “Clear”. As for RDILELGGPEEDAASGTISKKD [DDDDD.30], under setting [1], the Solubility result is given as “Clear”. On to RFIGPLPREGSVGSTSDYVSQS [GGGGG.22], for which the “Visual solubility” value is recorded as “Clear”. With RNLYISGFSLCFWLVLRRLVT [FFFFF.26], the Solubility entry under setting [2] is reported as “Cloudy”. For RPGEDPSLHGIVKEQL [GGGGG.10], the “Visual solubility” value is given as “Clear”. Regarding RRACGARTL [DDDDD.37], the Solubility result under setting [1] was “Clear”.

As for RRWRKLYRANSHLFQAKRFN [DDDDD.24], the Solubility result under setting [1] is given as “Clear”. For the molecule RSLTLEPDPIVVPGNVTLSVVG [GGGGG.33], the Stability result was “Clear”. For the molecule RSTTKSPGPSRHSKSPASTSSVN [FFFFF.21], the Solubility entry under setting [2] is “Clear”. Take RVGDLSPKQKEALAKPEA [GGGGG.27]: the “Visual solubility” value was “Clear”.
